Results as given in patent US20220194911A1, “NOVEL COMPOUND FOR INHIBITING HISTONE ACETYLTRANSFERASE P300 AND ANTIFIBROTIC COMPOSITION COMPRISING SAME” (REFURE LIFE SCIENCE INC., priority 2019, published 2022).

Target: HAT p300 (histone acetyltransferase p300) (Homo sapiens, UniProt Q09472)
Test: HAT activity kit assay (Biovision K332), inhibition of HAT activity of p300
Format: biochemical
Conditions: for HAT p300 activity inhibitory effect: diluted to 100 μM, FIG. 9
Method: Candidates 1 to 67, which are HAT inhibitors manufactured based on the PCAF structure, and HAT-24, HAT-26, and HAT-28 were diluted to 100 μM, and the degree of inhibition of HAT activity of p300 (inhibitory activity) was then determined using a kit for measuring HAT activity (Biovision, Cat No. K332, U.S.A) according to the method provided by the manufacturer. Here, the tissue was treated with C646 (HAT inhibitor) as a positive control.
Candidates 1 to 14 having a good HAT activity inhibitory effect in Section were diluted to concentrations of 0.5 μM, 1 μM, 10 μM, and 100 μM. Thereafter, the degree of inhibition of HAT activity was determined in the same manner as in Section.
Synthesis Examples 1 to 19 were diluted to 100 μM, and the degree of inhibition of HAT p300 activity was then determined in the same manner as in Section. Here, the tissues were treated with C646 and Candidate 12 (HAT-12) as the control, instead of Synthesis Examples 1 to 19.

Chain of HAT p300 (histone acetyltransferase p300) (Q09472 whole entry): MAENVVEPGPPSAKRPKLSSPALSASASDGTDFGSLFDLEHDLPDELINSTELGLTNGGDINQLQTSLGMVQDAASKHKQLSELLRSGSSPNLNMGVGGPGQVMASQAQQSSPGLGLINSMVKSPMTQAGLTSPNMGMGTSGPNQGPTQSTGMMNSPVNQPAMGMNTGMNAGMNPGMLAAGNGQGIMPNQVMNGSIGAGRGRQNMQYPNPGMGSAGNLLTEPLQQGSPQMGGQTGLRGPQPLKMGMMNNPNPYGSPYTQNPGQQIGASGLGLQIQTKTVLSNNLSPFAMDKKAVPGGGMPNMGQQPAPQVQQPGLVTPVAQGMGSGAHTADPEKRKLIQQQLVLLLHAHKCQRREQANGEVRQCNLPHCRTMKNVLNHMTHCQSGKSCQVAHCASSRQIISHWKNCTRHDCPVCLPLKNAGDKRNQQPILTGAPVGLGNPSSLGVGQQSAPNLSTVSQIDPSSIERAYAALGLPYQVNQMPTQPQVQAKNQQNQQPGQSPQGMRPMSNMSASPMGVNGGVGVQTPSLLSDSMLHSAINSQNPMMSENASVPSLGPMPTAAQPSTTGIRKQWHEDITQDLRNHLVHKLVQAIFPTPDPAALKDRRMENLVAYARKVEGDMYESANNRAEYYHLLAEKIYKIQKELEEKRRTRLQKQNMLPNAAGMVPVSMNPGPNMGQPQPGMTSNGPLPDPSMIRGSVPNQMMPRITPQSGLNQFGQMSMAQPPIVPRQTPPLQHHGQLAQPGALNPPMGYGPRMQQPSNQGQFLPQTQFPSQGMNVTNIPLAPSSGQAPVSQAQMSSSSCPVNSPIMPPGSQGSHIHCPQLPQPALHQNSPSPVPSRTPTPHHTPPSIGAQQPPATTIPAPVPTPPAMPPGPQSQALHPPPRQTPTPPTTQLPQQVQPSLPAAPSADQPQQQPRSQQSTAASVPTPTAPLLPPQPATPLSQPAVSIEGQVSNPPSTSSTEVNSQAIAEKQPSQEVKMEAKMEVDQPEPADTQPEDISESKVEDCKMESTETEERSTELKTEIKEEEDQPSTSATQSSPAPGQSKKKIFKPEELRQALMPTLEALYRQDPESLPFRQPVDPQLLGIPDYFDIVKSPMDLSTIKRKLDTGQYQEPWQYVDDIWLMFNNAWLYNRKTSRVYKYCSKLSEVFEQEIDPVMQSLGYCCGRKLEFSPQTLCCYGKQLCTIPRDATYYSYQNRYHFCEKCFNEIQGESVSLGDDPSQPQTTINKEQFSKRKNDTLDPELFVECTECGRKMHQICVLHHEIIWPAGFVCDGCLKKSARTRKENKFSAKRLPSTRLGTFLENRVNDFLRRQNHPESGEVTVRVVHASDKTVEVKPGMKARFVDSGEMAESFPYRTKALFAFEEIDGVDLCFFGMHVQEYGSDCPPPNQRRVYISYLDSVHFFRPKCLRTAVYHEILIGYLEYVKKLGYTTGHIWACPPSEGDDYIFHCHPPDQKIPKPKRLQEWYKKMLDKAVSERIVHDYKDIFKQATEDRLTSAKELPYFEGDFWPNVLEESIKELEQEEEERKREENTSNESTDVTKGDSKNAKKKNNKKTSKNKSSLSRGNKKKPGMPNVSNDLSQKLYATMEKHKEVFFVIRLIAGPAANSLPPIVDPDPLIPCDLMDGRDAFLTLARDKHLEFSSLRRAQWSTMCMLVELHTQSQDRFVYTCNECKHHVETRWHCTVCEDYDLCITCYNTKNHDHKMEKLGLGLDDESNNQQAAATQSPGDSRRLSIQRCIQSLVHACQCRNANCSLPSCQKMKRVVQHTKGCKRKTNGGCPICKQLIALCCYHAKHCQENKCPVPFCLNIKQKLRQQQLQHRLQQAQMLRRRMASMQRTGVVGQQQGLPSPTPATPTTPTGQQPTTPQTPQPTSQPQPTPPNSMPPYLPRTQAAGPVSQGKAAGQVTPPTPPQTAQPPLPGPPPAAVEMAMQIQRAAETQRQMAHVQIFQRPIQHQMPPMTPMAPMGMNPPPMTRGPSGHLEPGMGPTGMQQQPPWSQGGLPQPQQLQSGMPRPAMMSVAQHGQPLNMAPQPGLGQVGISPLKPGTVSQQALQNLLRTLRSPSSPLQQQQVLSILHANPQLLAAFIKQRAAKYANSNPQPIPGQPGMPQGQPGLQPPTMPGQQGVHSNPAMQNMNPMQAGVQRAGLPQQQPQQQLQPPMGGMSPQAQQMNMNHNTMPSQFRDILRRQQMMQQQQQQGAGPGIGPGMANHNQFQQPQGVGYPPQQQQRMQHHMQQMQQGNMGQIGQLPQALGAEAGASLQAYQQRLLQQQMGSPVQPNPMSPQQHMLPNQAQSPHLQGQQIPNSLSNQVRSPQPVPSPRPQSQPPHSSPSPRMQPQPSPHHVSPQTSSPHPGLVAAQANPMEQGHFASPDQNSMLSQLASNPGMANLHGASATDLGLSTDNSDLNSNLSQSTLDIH

SMILES | HAT p300 activity inhibitory effect | IC50 (secondary screening, tested at 0.5, 1, 10 and 100 μM) [µM]
COc1cc(/C=N/CCN2CCCCC2)cc(Cl)c1OCc1cccc(Cl)c1 [Candidate 12] | approximately 80% | 0.953
COc1cc(/C=N/Cc2ccc(C(=O)O)cc2)cc(Cl)c1OCc1cccc(Cl)c1 [Synthesis Example 19, (E)-4-(((3-chloro-4-((3-chlorobenzyl)oxy)-5-methoxybenzylidene)amino)methyl)benzoic acid] | ≥ 90% | 
